Reference: patent US20160231319A1, “METHOD OF ENHANCING HEMATOPOIETIC CELL TRANSPLANTATION” (Verve, Ltd., priority 2014, published 2016)

What was measured:
UCB HSC = settings: pulse incubation of UCB cells; clinical trial; cited from earlier work
[1] = test system: phospho-GSK-3β in CD34+ cells from UCB; assay: UCB mononuclear cells treated with PGE2; phospho-GSK-3β expression in CD34+ cells by high-resolution flow cytometry; assay type: cell-based; settings: UCB treated with reagent vehicle (DMSO) versus PGE2
Source text: Using our high-resolution flow cytometric technology, we have studied HSC for measures of potency. Our conception has been that expression levels of molecules shown to be important for hematopoiesis in experimental studies may have utility in assessing the potency of HSC in terms of engraftment after transplantation.
In order to assess molecular expression level correlates of potency in UCB HSC, we treated UCB mononuclear cells with PGE2 and assessed the expression of […].
This is consistent with our previous finding that phospho-GSK-3β is a potency biomarker.

CCCCC[C@H](O)/C=C/[C@H]1[C@H](O)CC(=O)[C@@H]1C/C=C\CCCC(=O)O [PGE2, Prostaglandin E2]
potency of the HSC in terms of engraftment (UCB HSC): enhances the potency of the HSC in terms of engraftment
expression of phospho-GSK-3β in CD34+ cells [1]: able to detect differences in expression of phospho-GSK-3β
